# Results reported in US6613718B2, “Aryl ether derivatives and processes for their preparation and herbicidal and desiccant compositions containing them” (Ishihara Sangyo Kaisha, Ltd., priority 2001, dated 2003).
# Columns and labels:
# [1] = Pre-emerge herbicidal activity of mixtures with Compound 1-1 and other herbicides, observed 64 days after treatment; type: in vivo; conditions: 1-1 alone 50 g ai/ha
# Experimental: (§1) The data in Table XI and Table XII show the results when compounds 1-1 and 2-1 were tested as mixtures with other herbicides. Observations in Table XI were made 64 days after treatment while those in Table XII were made 56 days after treatment.
# [2] = Pre-emerge herbicidal activity of mixtures with Compound 2-1 and other herbicides, observed 56 days after treatment; type: in vivo; conditions: 2-1 alone 200 g ai/ha
# Experimental: as §1
SMILES,ABUTH pre-emerge herbicidal activity ([1]; ABUTH),AMARE pre-emerge herbicidal activity ([1]; AMARE),AMBEL pre-emerge herbicidal activity ([1]; AMBEL),CHEAL pre-emerge herbicidal activity ([1]; CHEAL),"CORN damage, pre-emerge ([1]; CORN)",SETVI pre-emerge herbicidal activity ([1]; SETVI),ABUTH pre-emerge herbicidal activity ([2]; ABUTH),AMARE pre-emerge herbicidal activity ([2]; AMARE),AMBEL pre-emerge herbicidal activity ([2]; AMBEL),CHEAL pre-emerge herbicidal activity ([2]; CHEAL),"CORN damage, pre-emerge ([2]; CORN)",SETVI pre-emerge herbicidal activity ([2]; SETVI)
Cn1c(C(F)(F)F)cc(=O)n(-c2cc(Oc3ncccn3)c(Cl)cc2F)c1=S [1-1.],87,93,92,95,0,90,–,–,–,–,–,–
Cn1c(=S)n(C)c(=O)n(-c2cc(Oc3ncccn3)c(Cl)cc2F)c1=O [2-1.],–,–,–,–,–,–,95,93,95,95,0,90
